Source: ChEMBL document CHEMBL4414585, “Inhibition Mechanisms of Indoleamine 2,3-Dioxygenase 1 (IDO1)” (J Med Chem, 2019)
The source made the active and inactive calls. No cut-off for these calls is given here.

Key:
[1] = target: T1, Indoleamine 2,3-dioxygenase 1 (Homo sapiens, UniProt P14902); assay: Binding affinity to human IDO1 expressed in Escherichia coli Rosetta (DE3) assessed induction of shift in Soret peak in phosphate buffer at 200 uM in presence of ascorbate and MB reductants measured over 60 mins by UV-vis absorption spectroscopy (reference value: […] nm)
Target sequence in this assay (P14902 whole entry, looked up): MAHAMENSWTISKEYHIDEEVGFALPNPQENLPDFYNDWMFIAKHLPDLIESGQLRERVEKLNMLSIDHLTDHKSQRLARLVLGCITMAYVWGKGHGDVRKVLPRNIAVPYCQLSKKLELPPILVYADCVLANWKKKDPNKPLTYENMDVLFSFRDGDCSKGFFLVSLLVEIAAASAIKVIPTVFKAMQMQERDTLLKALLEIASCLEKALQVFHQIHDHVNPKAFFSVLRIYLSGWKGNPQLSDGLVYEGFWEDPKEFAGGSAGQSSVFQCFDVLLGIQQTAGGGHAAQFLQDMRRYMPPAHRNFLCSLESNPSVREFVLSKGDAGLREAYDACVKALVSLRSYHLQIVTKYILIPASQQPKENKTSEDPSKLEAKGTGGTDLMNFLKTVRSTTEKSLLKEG

[2] = target: T1, Indoleamine 2,3-dioxygenase 1; assay: Inhibition of full-length human IDO1 expressed in Escherichia coli Rosetta (DE3) assessed as reduction in kynurenine production at 40 to 200 uM pre-incubated for 120 mins before jump dilution with incubation medium containing L-Trp and further incubated for 20 mins by HPLC analysis
Target sequence in this assay (P14902 whole entry, looked up): as above

[3] = target: T1, Indoleamine 2,3-dioxygenase 1; assay: Inhibition of IDO1 (unknown origin) by cell based assay
Target sequence in this assay (P14902 whole entry): as the sequence (P14902 whole entry, looked up) above

[4] = target: T1, Indoleamine 2,3-dioxygenase 1; assay: Binding affinity to human IDO1 expressed in Escherichia coli Rosetta (DE3) assessed complete protection against heme degradation at 200 uM in presence of ascorbate and MB reductants measured at 45 mins by UV-vis absorption spectroscopy
Target sequence in this assay (P14902 whole entry, looked up): as above

[5] = target: T1, Indoleamine 2,3-dioxygenase 1; assay: Inhibition of full-length human IDO1 expressed in Escherichia coli Rosetta (DE3) using L-Trp substrate by HPLC analysis
Target sequence in this assay (P14902 whole entry): as the sequence (P14902 whole entry, looked up) above

[6] = target: T1, Indoleamine 2,3-dioxygenase 1; assay: Selectivity ratio of IC50 for inhibition of IDO1 (unknown origin) by enzymatic assay to IC50 for inhibition of IDO1 (unknown origin) by cell based assay
Target sequence in this assay (P14902 whole entry, looked up): as above

[7] = target: T1, Indoleamine 2,3-dioxygenase 1; assay: (§1) Inhibition of full-length human IDO1 expressed in Escherichia coli Rosetta (DE3) assessed as enzyme activity by measuring kynurenine production at 40 to 200 uM pre-incubated for 120 mins in presence of ascorbate and MB reductants and catalase before jump dilution with incubation medium containing L-Trp and further incubated for 20 mins by HPLC analysis
Target sequence in this assay (P14902 whole entry, looked up): as above

[8] = target: T1, Indoleamine 2,3-dioxygenase 1; assay: as §1, with “reductants” for “reductants and catalase”; design: scale not given: the % may be the effect or the level left
Target sequence in this assay (P14902 whole entry, looked up): as above

[9] = target: T1, Indoleamine 2,3-dioxygenase 1; assay: Inhibition of IDO1 (unknown origin) by enzymatic assay
Target sequence in this assay (P14902 whole entry): as the sequence (P14902 whole entry, looked up) above

[10] = target: T1, Indoleamine 2,3-dioxygenase 1; assay: as §1, with “reduction in” for “enzyme activity by measuring”, “0.5” for “40”, “1” for “200”
[11] = target: T1, Indoleamine 2,3-dioxygenase 1; assay: (§2) Inhibition of full-length human IDO1 expressed in Escherichia coli Rosetta (DE3) assessed as reduction in kynurenine production at 0.5 to 1 uM pre-incubated for 120 mins in presence of ascorbate and MB reductants before jump dilution with incubation medium containing L-Trp and further incubated for 20 mins by HPLC analysis
[12] = target: T1, Indoleamine 2,3-dioxygenase 1; assay: Inhibition of purified human recombinant IDO1 expressed in Escherichia coli assessed as reduction in kynurenine production incubated up to 90 mins using L-Trp substrate by Ehrlich's reagent based spectrophotometry
Target sequence in this assay (P14902 whole entry): as the sequence (P14902 whole entry, looked up) above

[13] = target: T1, Indoleamine 2,3-dioxygenase 1; assay: Inhibition of IDO1 in IFNgamma-induced human HeLa cells incubated for 5 hrs by Ehrlich's reagent based assay; type: cell-based
Target sequence in this assay (P14902 whole entry): as the sequence (P14902 whole entry, looked up) above

[14] = target: T1, Indoleamine 2,3-dioxygenase 1; assay: Inhibition of full-length human IDO1 expressed in Escherichia coli Rosetta (DE3) assessed as reduction in kynurenine production at 0.5 to 1 uM pre-incubated for 120 mins before jump dilution with incubation medium containing L-Trp and further incubated for 20 mins by HPLC analysis
[15] = target: T1, Indoleamine 2,3-dioxygenase 1; assay: Binding affinity to human IDO1 expressed in Escherichia coli Rosetta (DE3) assessed induction of shift in Soret peak in phosphate buffer at 200 uM in presence of ascorbate and MB reductants measured over 4 hrs by UV-vis absorption spectroscopy
[16] = target: T1, Indoleamine 2,3-dioxygenase 1; assay: Binding affinity to human IDO1 expressed in Escherichia coli Rosetta (DE3) assessed induction of shift in Soret peak in phosphate buffer at 200 uM measured over 4 hrs by UV-vis absorption spectroscopy
[17] = Dissociation constant, pKa of the compound; type: physicochemical
[18] = target: T1, Indoleamine 2,3-dioxygenase 1; details: 40 uM
Description: Inhibition of full-length human IDO1 expressed in Escherichia coli Rosetta (DE3) assessed as reduction in kynurenine production at 40 uM pre-incubated for 120 mins before L-Trp addition by HPLC analysis relative to control

[19] = target: T1, Indoleamine 2,3-dioxygenase 1; details: 20 to 40 uM
Description: Inhibition of full-length human IDO1 expressed in Escherichia coli Rosetta (DE3) assessed as reduction in kynurenine production at 20 to 40 uM pre-incubated for 120 mins before jump dilution with incubation medium containing L-Trp and further incubated for 20 mins by HPLC analysis

[20] = target: T1, Indoleamine 2,3-dioxygenase 1; details: 20 uM
Description: Inhibition of full-length human IDO1 expressed in Escherichia coli Rosetta (DE3) assessed as reduction in kynurenine production at 20 uM pre-incubated for 120 mins before L-Trp addition by HPLC analysis relative to control

[21] = target: T1, Indoleamine 2,3-dioxygenase 1; details: 20 to 40 uM; remark: listed apart in the source
Description: Inhibition of full-length human IDO1 expressed in Escherichia coli Rosetta (DE3) assessed as reduction in kynurenine production at 20 to 40 uM pre-incubated for 120 mins before L-Trp addition in presence of ascorbate and MB reductants by HPLC analysis relative to control

[22] = target: T1, Indoleamine 2,3-dioxygenase 1; details: 20 to 40 uM; remark: listed apart in the source
Description: Inhibition of full-length human IDO1 expressed in Escherichia coli Rosetta (DE3) assessed as reduction in kynurenine production at 20 to 40 uM pre-incubated for 120 mins before L-Trp addition in presence of ascorbate and MB reductants and catalase by HPLC analysis relative to control

[23] = target: T1, Indoleamine 2,3-dioxygenase 1; assay: as §2, with “to 2.5” for “to 1”
[24] = target: T1, Indoleamine 2,3-dioxygenase 1; assay: as §2, with “to 2.5” for “to 1”, “reductants and catalase” for “reductants”
[25] = target: T1, Indoleamine 2,3-dioxygenase 1; assay: Inhibition of full-length human IDO1 expressed in Escherichia coli Rosetta (DE3) assessed as reduction in kynurenine production at 0.5 to 2.5 uM pre-incubated for 120 mins before jump dilution with incubation medium containing L-Trp and further incubated for 20 mins by HPLC analysis

**Q.** Which results are given for `Clc1ccc(Nc2cn[nH]n2)cc1`?
**A.** Activity [1]: 425 nm; inhibition [2]: Active; IC50 [3]: 0.023 µM; Activity [4]: inactive; IC50 [5]: 70 µM; Ratio IC50 [6]: 500; inhibition [7]: inactive; Activity [8]: 0%; IC50 [9]: 11.3 µM

**Q.** With `CC1(C)CCC2=C(O1)c1ccccc1C(=O)C2=O` [LAPACHONE] as the molecule, how does the inhibition [10] read?
**A.** inactive

**Q.** And the inhibition [11]?
**A.** Active

**Q.** And the IC50 [12]?
**A.** 0.44 µM

**Q.** And the IC50 [13]?
**A.** 1 µM

**Q.** And the inhibition [14]?
**A.** Active

**Q.** What about the Activity [15] of the same molecule?
**A.** inactive

**Q.** What about the Activity [16] of the same molecule?
**A.** inactive

**Q.** Which pKa [17] does the source give for `Oc1ccc(Cl)cc1-c1c[nH]nn1` here?
**A.** 8.3

**Q.** With `Nc1nonc1/C(=N/O)Nc1ccc(F)c(Cl)c1` as the molecule, how does the inhibition [18] read?
**A.** 65%

**Q.** And the inhibition [19]?
**A.** Active

**Q.** And the inhibition [20]?
**A.** 82%

**Q.** What about the inhibition [21] of the same molecule?
**A.** 100%

**Q.** What about the inhibition [22] of the same molecule?
**A.** 100%

**Q.** Which inhibition [23] does the source give for `CC1=CC(=O)c2ccccc2C1=O` here?
**A.** Active

**Q.** And the Activity [15]?
**A.** inactive

**Q.** What about the Activity [16] of the same molecule?
**A.** inactive

**Q.** And the inhibition [24]?
**A.** inactive

**Q.** What about the inhibition [25] of the same molecule?
**A.** Active
